Test results: ChEMBL document CHEMBL5625222, “Design, synthesis, and biological evaluation of 1,6-naphthyridine-2-one derivatives as novel FGFR4 inhibitors for the treatment of colorectal cancer” (Eur J Med Chem, 2023)
Calls of active or inactive are those of the source. The rule behind the calls is not given here.

How the values were obtained:
SW480 = assay: cells; settings: Homo sapiens, SW480, 48 h
Description: Antiproliferative activity against human SW480 cells assessed as inhibition of cell growth incubated for 48 hrs by MTT assay

HCT-116 [1] = assay: cells; settings: Homo sapiens, HCT-116, 48 h
Description: Antiproliferative activity against human HCT-116 cells assessed as inhibition of cell growth incubated for 48 hrs by MTT assay

[2] = Antiproliferative activity against human Intestinal epithelial cell assessed as inhibition of cell growth incubated for 48 hrs by MTT assay; type: toxicity, cell-based; settings: human intestinal epithelial cells
RKO = assay: cells; settings: Homo sapiens, 48 h
Description: Antiproliferative activity against human RKO cells assessed as inhibition of cell growth incubated for 48 hrs by MTT assay

BaF3 = assay: Antiproliferative activity against mouse BaF3 transfected with FGFR4 assessed as inhibition of cell growth incubated for 72 hrs by CCK-8 assay; type: toxicity, cell-based; settings: BaF3, 72 h
HCT-116 [3] = assay: Antitumor activity against human HCT-116 cells xenografted in BALB/c mouse assessed as chromatin condensation at 10 mg/kg,po administrated for 2 weeks by hematoxylin and eosin staining based analysis; type: functional, organism-based
HCT-116 [4] = assay: Antitumor activity against human HCT-116 cells xenografted in BALB/c mouse assessed as tumor growth inhibition at 10 mg/kg,po administrated for 2 weeks relative to control; type: functional; settings: HCT-116, 336 h, read-out: TGI
[5] = Toxicity in BALB/c mouse xenografted with human HCT-116 cells assessed as histopathological change in kidney at 10 mg/kg,po administrated for 2 weeks by hematoxylin and eosin staining based analysis; type: organism-based; settings: in vivo, 336 h
[6] = Toxicity in BALB/c mouse xenografted with human HCT-116 cells assessed as increase in serum AST level at 10 mg/kg,po administrated for 2 weeks; type: organism-based; settings: in vivo, 336 h
HCT-116 [7] = assay: Antitumor activity against human HCT-116 cells xenografted in BALB/c mouse assessed as change in cell morphology at 10 mg/kg,po administrated for 2 weeks by hematoxylin and eosin staining based analysis; type: functional, organism-based

| SMILES | IC50 (SW480) [µM] | IC50 (HCT-116 [1]) [µM] | IC50 at 48 h [2] [µM] | IC50 (RKO) [µM] | IC50 (BaF3) [µM] | Activity (HCT-116 [3]) | inhibition in vivo at 10 mg/kg (HCT-116 [4]) [%] | Activity [5] | Activity [6] | Activity (HCT-116 [7]) |
| --- | --- | --- | --- | --- | --- | --- | --- | --- | --- | --- |
| COc1cc(OC)c(Cl)c(-c2cc3cnc(Nc4c(C)cccc4N4CCCCC4)cc3n(CCCN3CCCCC3)c2=O)c1Cl | 10.3 | 9.37 | 25.1 | 11.2 | – | – | – | – | – | – |
| C=CC(=O)NCCCn1c(=O)c(-c2cc(OC)cc(OC)c2)cc2cnc(Nc3c(C)cccc3N3CCN(C)CC3)cc21 | 12.7 | 10.8 | 21.3 | 11.5 | – | – | – | – | – | – |
| COc1cc(OC)cc(-c2cc3cnc(Nc4c(C)cccc4N4CCOCC4)cc3n(CCCO)c2=O)c1 | 22.8 | 11.9 | 19.5 | 9.25 | – | – | – | – | – | – |
| C=CC(=O)Nc1cccc(C)c1Nc1ncc2cc(-c3c(Cl)c(OC)cc(OC)c3Cl)ccc2n1 | 12.7 | 8.89 | 18.4 | 19.7 | 0.00512 | – | – | – | – | – |
| CNC(=O)c1c(C)oc2cc(Oc3ncnc4cc(OC)c(OC)cc34)ccc12 [FRUQUINTINIB] | – | – | – | – | – | Active | 63.7 | Toxic | Toxic | Active |
| C=CC(=O)Nc1cccc(C)c1Nc1cc2c(cn1)cc(-c1c(Cl)c(OC)cc(OC)c1Cl)c(=O)n2CCCO | 12.8 | 7.21 | 24 | 9.32 | – | – | – | – | – | – |
